Data taken from the supplement of paper PMC10307832.

Experiments:
Test in all cases: relative viability (nuclei count vs DMSO), 5 days (fraction); higher = more cells survive
YM155 + Palbociclib = compound: COCC[n+]1c2c(n(Cc3cnccn3)c1C)C(=O)c1ccccc1C2=O [YM155] + CC(=O)c1c(C)c2cnc(Nc3ccc(N4CCNCC4)cn3)nc2n(C2CCCC2)c1=O [Palbociclib] (partner 0.5 µM)
Method in brief: (§1)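 Cells from lung cancer lines were seeded into 1536-well plates and, one day later, dosed by pin tool. Treatments were either a single drug or a fixed dose of an anchor drug with five library-drug doses (not always all listed) in √10 steps. After 5 days, nuclei were stained in a one-step fixation (final 0.05% Triton X-100, 1% formaldehyde, 1 ug/ml Hoechst) and counted on 4× images, and relative viability is the treated-to-vehicle nuclei ratio, as the median of duplicate plates.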

YM155 + Bortezomib = compound: COCC[n+]1c2c(n(Cc3cnccn3)c1C)C(=O)c1ccccc1C2=O [YM155] + CC(C)C[C@H](NC(=O)[C@H](Cc1ccccc1)NC(=O)c1cnccn1)B(O)O [Bortezomib] (partner 0.002 µM)
Method in brief: as §1

Quizartinib + Alpelisib = compound: CC(C)(C)c1cc(NC(=O)Nc2ccc(-c3cn4c(n3)sc3cc(OCCN5CCOCC5)ccc34)cc2)no1 [Quizartinib] + Cc1nc(NC(=O)N2CCC[C@H]2C(N)=O)sc1-c1ccnc(C(C)(C)C(F)(F)F)c1 [Alpelisib] (partner 2 µM)
Method in brief: as §1

YM155 + AZD7762 = compound: COCC[n+]1c2c(n(Cc3cnccn3)c1C)C(=O)c1ccccc1C2=O [YM155] + NC(=O)Nc1cc(-c2cccc(F)c2)sc1C(=O)N[C@H]1CCCNC1 [AZD7762] (partner 0.2 µM)
Method in brief: as §1

Cell Line | relative viability (YM155 + Palbociclib; first compound 0.002 µM) | relative viability (YM155 + Palbociclib; first compound 0.006325 µM) | relative viability (YM155 + Palbociclib; first compound 0.02 µM) | relative viability (YM155 + Palbociclib; first compound 0.06325 µM) | relative viability (YM155 + Bortezomib; first compound 0.002 µM) | relative viability (YM155 + Bortezomib; first compound 0.006325 µM) | relative viability (YM155 + Bortezomib; first compound 0.02 µM) | relative viability (YM155 + Bortezomib; first compound 0.06325 µM) | relative viability (Quizartinib + Alpelisib; first compound 0.003162 µM) | relative viability (Quizartinib + Alpelisib; first compound 0.01 µM) | relative viability (Quizartinib + Alpelisib; first compound 0.03162 µM) | relative viability (Quizartinib + Alpelisib; first compound 0.1 µM) | relative viability (Quizartinib + Alpelisib; first compound 0.001 µM) | relative viability (YM155 + AZD7762; first compound 0.002 µM) | relative viability (YM155 + AZD7762; first compound 0.006325 µM) | relative viability (YM155 + AZD7762; first compound 0.02 µM) | relative viability (YM155 + AZD7762; first compound 0.06325 µM)
NCI-H1650 | 0.229 | 0.347 | 0.286 | 0.216 | 0.216 | 0.23 | 0.221 | 0.19 | – | – | – | – | – | – | – | – | –
NCI-H1299 | – | – | – | – | 1.02 | 1.01 | 1 | 1 | 1.01 | 1.11 | 1.06 | 0.986 | – | – | – | – | –
SK-LU-1 | 0.405 | 0.495 | 0.404 | 0.412 | 1.05 | 1.04 | 1.54 | 1.09 | 0.876 | 1.17 | 0.982 | 0.81 | 0.96 | – | – | – | –
NCI-H1395 | 0.565 | 0.613 | 0.598 | 0.627 | – | – | – | – | 1.01 | 1.21 | 1.06 | 0.995 | 1.05 | 0.351 | 0.41 | 0.4 | 0.434
NCI-H2228 | 0.573 | 0.69 | 0.752 | 0.714 | 0.975 | 0.923 | 1.11 | 1.1 | 0.58 | 0.79 | 0.721 | 0.678 | 0.771 | – | – | – | –
NCI-H2023 | 0.384 | 0.423 | 0.21 | 0.105 | 0.984 | 1.01 | 1.17 | 0.893 | 0.467 | 0.665 | 0.323 | 0.575 | 0.562 | – | – | – | –
NCI-H1793 | 0.292 | 0.324 | 0.323 | 0.304 | – | – | – | – | 0.875 | 0.788 | 0.731 | 0.798 | 0.588 | 0.329 | 0.619 | 0.532 | 0.46
